pIC50: −log10 of the molar value. Blank lines part the entries; values can stand above or below the compound they belong to.
Test system: 997537-175-T-J1-PDC complex spheroid viability
Assay: Anticancer human tumor 997537-175-T-J1-PDC patient-derived colon adenocarcinoma cell line growth inhibition [GQUAD]
Conditions: for pIC50: curve of first compound; for viability, T/C: stronger effect = lower value
Excerpt: DNA G-quadruplex Stabilizer Agents in Combinations in Complex Spheroids
A high-throughput screen of multi-cell type tumor spheroids was designed to identify active combinations of DNA G-quadruplex stabilizer agents and targeted small molecules. Complex spheroids include a stromal component modeled by human endothelial cells (HUVEC) and fibroblasts modeled by human mesenchymal stem cells (MSCs). The concentration ranges selected for each drug and investigational agent were based upon clinically achievable concentrations if the clinical Cmax of the agent was known.
Compounds. The drugs and investigational agents: pidnarulex (CX-5461; NSC782164), APTO-253 (NSC789042), BRACO-19 (NSC847499), peposertib (NSC802822), ceralasertib (NSC780249), elimusertib (NSC800525), camonsertib (NSC841442), AZD-1390 (NSC803789), olaparib (NSC753686), talazoparib (NSC767125), ART-558 (NSC835418), sotorasib (NSC818433), MRTX-1133 (NSC836407), SN-38 (NSC673596), topotecan (NSC609699), etoposide (NSC141540), doxorubicin (NSC123127), gemcitabine (NSC613327), 5-fluorouracil (NSC19893), paclitaxel (NSC125973), vemurafenib (NSC761431), panobinostat (NSC761190), R-306465 (JNJ-16241199; NSC773264), adavosertib (NSC754352), TP-3654 (NSC805149), carboplatin (NSC241240), KSQ-4279 (NSC840948), and staurosporine (NSC755774) were obtained from the National Cancer Institute (NCI) Developmental Therapeutics Program Chemical Repository (34). The FDA-approved anticancer drug set is available from the NCI Developmental Therapeutics Program. […] The stock solutions were prepared in dimethyl sulfoxide (DMSO, Sigma-Aldrich, St. Louis, MO, cat. D2650) at 800-fold the tested concentration and stored at -70 degrees C prior to their use. All drugs and investigational agents were tested over a range starting from a high concentration at or near the clinical Cmax and decreasing in half-log increments. If the clinical Cmax for an agent had not been determined, the highest concentration tested was 10 microM.
2.3 Cell Culture. All cells were maintained in an incubator at 37 degrees C and 5% CO2 with 95% humidity. The PDC lines were cultured according to standard operating procedures established by the NCI PDMR. All PDCs were thawed and cultured in Matrigel-coated flasks prepared with a working solution of 1X Ham's F-12 nutrient mix, without supplementation (Invitrogen, cat. 11765054), 100 U/mL penicillin-streptomycin (Invitrogen, cat. 15140122), and 2.5% Matrigel (Corning Inc., cat. 354248) for the first three passages. The 857933-349-R-J2-PDC line was cultured in 6C/Colon 1B media, which includes advanced DMEM/F-12 (Thermo Fisher Scientific, cat. 12634028), 10 mM HEPES (Thermo Fisher Scientific, cat. 15630080), 1X GlutaMAX supplement (Thermo Fisher Scientific, cat. 35050061), 0.1 mg/mL primocin (InvivoGen, cat. ant-pm-2), 10% defined fetal bovine serum, heat inactivated (HyClone Laboratories Inc., cat. SH30070.03HI), 50% L-WRN conditioned media (ATCC, cat. CRL-3276), 1.25 mM N-Acetyl-L-cysteine (Sigma-Aldrich, cat. A9165), 10 mM nicotinamide (Sigma-Aldrich, cat. N0636), 1X B-27 supplement (Thermo Fisher Scientific, cat. 17504044), 1X N-2 supplement (Thermo Fisher Scientific, cat. 17502048), 10 microM Y-27632 dihydrochloride (Tocris Bioscience, cat. 1254), and 50 ng/mL human EGF recombinant protein (Thermo Fisher Scientific, cat. PHG0311). The 485176-168-R4-J1-PDC line was cultured in Panc media, which includes all 6C/Colon 1B media components plus 100 ng/mL human FGF-10 (Thermo Fisher Scientific, cat. 100-26), 500 nM SB-431542 (Selleckchem, cat. S1067), and gastrin (Tocris, cat. 3006).
[…]

[1] = second compound 0.0316 µM, first compound 0.0316 µM
[2] = second compound 0.0316 µM, first compound 0.1 µM
[3] = second compound 0.0316 µM, first compound 0.316 µM
[4] = second compound 0.0316 µM, first compound 1 µM
[5] = second compound 0.0316 µM, first compound 3.16 µM
[6] = second compound 0.0316 µM, first compound 10 µM
[7] = second compound 0.1 µM, first compound 0.0316 µM
[8] = second compound 0.1 µM, first compound 0.1 µM
[9] = second compound 0.1 µM, first compound 0.316 µM
[10] = second compound 0.1 µM, first compound 1 µM
[11] = second compound 0.1 µM, first compound 3.16 µM
[12] = second compound 0.1 µM, first compound 10 µM
[13] = second compound 0.316 µM, first compound 0.0316 µM
[14] = second compound 0.316 µM, first compound 0.1 µM
[15] = second compound 0.316 µM, first compound 0.316 µM
[16] = second compound 0.316 µM, first compound 1 µM
[17] = second compound 0.316 µM, first compound 3.16 µM
[18] = second compound 0.316 µM, first compound 10 µM
[19] = second compound 1 µM, first compound 0.0316 µM
[20] = second compound 1 µM, first compound 0.1 µM
[21] = second compound 1 µM, first compound 0.316 µM
[22] = second compound 1 µM, first compound 1 µM
[23] = second compound 1 µM, first compound 3.16 µM
[24] = second compound 1 µM, first compound 10 µM
[25] = second compound 3.16 µM, first compound 0.0316 µM
[26] = second compound 3.16 µM, first compound 0.1 µM
[27] = second compound 3.16 µM, first compound 0.316 µM
[28] = second compound 3.16 µM, first compound 1 µM
[29] = second compound 3.16 µM, first compound 3.16 µM
[30] = second compound 3.16 µM, first compound 10 µM
[31] = second compound 10 µM, first compound 0.0316 µM
[32] = second compound 10 µM, first compound 0.1 µM
[33] = second compound 10 µM, first compound 0.316 µM
[34] = second compound 10 µM, first compound 1 µM
[35] = second compound 10 µM, first compound 3.16 µM
[36] = second compound 10 µM, first compound 10 µM
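Note: spheroids exposed to the agents for 7 days.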
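Throughout, for viability, T/C: 100% = DMSO vehicle control viability.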

pIC50 (second compound 0.0316 µM): < 5.00
pIC50 (second compound 0.1 µM): < 5.00
pIC50 (second compound 0.316 µM): < 5.00
pIC50 (second compound 1 µM): < 5.00
pIC50 (second compound 3.16 µM): < 5.00
pIC50 (second compound 10 µM): < 5.00
SMILES: C=CC(=O)N1CCN(c2nc(=O)n(-c3c(C)ccnc3C(C)C)c3nc(-c4c(O)cccc4F)c(F)cc23)C(C)C1 (centres undefined) + Cc1cnc(CNC(=O)c2c(=O)c3ccc(N4CCCN(C)CC4)nc3n3c2sc2ccccc23)cn1
viability, T/C [1]: 102%
viability, T/C [2]: 90.1%
viability, T/C [3]: 93.8%
viability, T/C [4]: 71.5%
viability, T/C [5]: 77%
viability, T/C [6]: 87.7%
viability, T/C [7]: 98.8%
viability, T/C [8]: 77.7%
viability, T/C [9]: 87.5%
viability, T/C [10]: 64.5%
viability, T/C [11]: 102%
viability, T/C [12]: 91.4%
viability, T/C [13]: 84.7%
viability, T/C [14]: 85%
viability, T/C [15]: 85.4%
viability, T/C [16]: 94.9%
viability, T/C [17]: 89.4%
viability, T/C [18]: 90.4%
viability, T/C [19]: 93.7%
viability, T/C [20]: 100%
viability, T/C [21]: 99%
viability, T/C [22]: 95%
viability, T/C [23]: 102%
viability, T/C [24]: 99.2%
viability, T/C [25]: 68.9%
viability, T/C [26]: 115%
viability, T/C [27]: 96.5%
viability, T/C [28]: 102%
viability, T/C [29]: 103%
viability, T/C [30]: 94.4%
viability, T/C [31]: 84.1%
viability, T/C [32]: 83.5%
viability, T/C [33]: 114%
viability, T/C [34]: 87.7%
viability, T/C [35]: 95.3%
viability, T/C [36]: 118%

pIC50 (second compound 0.0316 µM): 5.95
pIC50 (second compound 0.1 µM): 6.05
pIC50 (second compound 0.316 µM): 5.86
pIC50 (second compound 1 µM): 5.76
pIC50 (second compound 3.16 µM): 5.82
pIC50 (second compound 10 µM): 5.80
SMILES: CC(C)(O)C1CCC(Nc2ccc3ncc(-c4cccc(C(F)(F)F)c4)n3n2)CC1 (centres undefined) + Cc1cnc(CNC(=O)c2c(=O)c3ccc(N4CCCN(C)CC4)nc3n3c2sc2ccccc23)cn1
viability, T/C [1]: 90.1%
viability, T/C [2]: 66.9%
viability, T/C [3]: 88.4%
viability, T/C [4]: 52.1%
viability, T/C [5]: 32.2%
viability, T/C [6]: 30.2%
viability, T/C [7]: 87.6%
viability, T/C [8]: 80.2%
viability, T/C [9]: 73.4%
viability, T/C [10]: 46.9%
viability, T/C [11]: 36.7%
viability, T/C [12]: 33.7%
viability, T/C [13]: 98.1%
viability, T/C [14]: 81.1%
viability, T/C [15]: 80.5%
viability, T/C [16]: 57.2%
viability, T/C [17]: 31.7%
viability, T/C [18]: 36.5%
viability, T/C [19]: 69.9%
viability, T/C [20]: 101%
viability, T/C [21]: 91.4%
viability, T/C [22]: 64.5%
viability, T/C [23]: 35.4%
viability, T/C [24]: 27%
viability, T/C [25]: 92.5%
viability, T/C [26]: 84.4%
viability, T/C [27]: 96.3%
viability, T/C [28]: 65.4%
viability, T/C [29]: 20.1%
viability, T/C [30]: 23.2%
viability, T/C [31]: 76.2%
viability, T/C [32]: 108%
viability, T/C [33]: 91.5%
viability, T/C [34]: 69.4%
viability, T/C [35]: 19.1%
viability, T/C [36]: 21.2%
